Blank lines part the entries; values can stand above or below the molecule they belong to.
Tests used:
[1] = system: TS-exposed mice (C57BL/6J), pulmonary inflammation; assay: Tobacco smoke model, cells recovered in bronchoalveolar lavage; assay type: in vivo, mouse
Experimental: The response consisted of significant increases in the numbers of macrophages, epithelial cells, neutrophils and lymphocytes recovered in BAL.
Vehicle (PBS), MOR12743 and MOR03207 were administered i.p., 1 h prior to TS-exposure on days 1, 4, 7 and 10 of the study. Roflumilast was administered p.o., 1 h prior to each TS-exposure.
In this exposure protocol, mice were exposed in groups of 5 in clear polycarbonate chambers (27 cm×16 cm×12 cm). The TS from ‘Marlboro 100’ cigarettes was allowed to enter the exposure chambers at a flow rate of 100 mL/min. In order to minimise any potential problems caused by repeated exposure to a high level of TS, the exposure period to TS was increased initially from 25 minutes at the start of the study (day 1) to a maximum of 45 minutes on day 3. The exposure schedule used in this study was as follows:
The trachea was cannulated using a 10 mm long Luer fitting stainless steel cannula. Phosphate buffered saline (PBS) was used as the lavage fluid. A volume of 0.4 mL was gently instilled and withdrawn 3 times using a 1 mL syringe and then placed in an Eppendorf tube and kept on ice prior to subsequent determinations.
Lavage fluid was separated from cells by centrifugation (6 min at 3400 rpm, RCF=3070×g—‘Eppendorf Mini Spin’) and the supernatant decanted and frozen for possible subsequent analysis. The cell pellet was re-suspended in a known volume of PBS and total cell numbers calculated by counting a stained (Turks stain) aliquot under a microscope using a haemocytometer.
The residual cell pellet was diluted to approximately 10^5 cells per mL. A volume of 500 μl was placed in the funnel of a cytospin slide and centrifuged for 8 min at 800 rpm, RCF=72.26×g (Shandon Cytospin 3). The slide was air-dried and stained using Wrights/Giemsa stain as per the proprietary instructions. When dried and cover-slipped, differential cell-counts were performed using light microscopy. Approximately 400 cells were counted for each slide. Cells were identified using standard morphometric techniques.
In this study, 4 groups of mice were subjected to daily TS-exposure for 11 days and were sacrificed on the 12th day, 24 h after the final TS-exposure. Three groups received either vehicle (D-PBS), MOR12743 or MOR03207, i.p., 1 h prior to TS-exposure on days 1, 4, 7 and 10 of the study. One group received Roflumilast, p.o., 1 h prior to each TS-exposure. A further group was exposed to air for 11 consecutive days and sacrificed on the 12th day, 24 h after the final air-exposure. This group received vehicle (D-PBS), i.p., 1 h prior to exposure on days 1, 4, 7 and 10 of the study. For all groups n=10.
All mice were killed on day 12, by intra-peritoneal barbiturate anaesthetic overdose, 24 h after final exposure to air or TS. A blood sample was taken over heparin from the sub-clavian vein and the plasma separated by centrifugation and stored at −40° C. A BAL was performed using 0.4 mL of phosphate buffered saline (PBS). Cells recovered from the BAL were used for the total cell and differential cell counts. The BAL supernatants and remaining cell pellet were stored at −40° C. and −80° C. respectively for possible future analysis. Following BAL, the cannula was left tied in place. The heart and lungs were removed after gently opening the thorax and cutting down either side of the sternum and ribs. The left lobe was tied off, removed, snap-frozen and stored at −80° C. The right lobe was inflated with 10% phosphate buffered formalin (PBF) to a pressure of 18 cm of PBF for 20 minutes. The trachea was then ligated below the cannula and the cannula removed. The heart, lung & trachea were immersed in PBF.
The data were therefore initially subjected to a one-way analysis of variance test (ANOVA), followed by a Bonferroni correction for multiple comparisons in order to test for statistically significant differences between treatment groups. A “p” value of <0.05 was considered to be statistically significant. […]

[2] = system: mouse CIA model (DBA1/J mice); assay: Mouse collagen induced arthritis (CIA) model, therapeutic protocol; assay type: in vivo; settings: 10 mg/kg, 3x week, i.p., day 31 to day 46
Experimental: DBA1/J mice (male, 6-7 weeks old, approx 20 gram) were obtained from Centre d'Elevage Regional Janvier (Laval, France). Mice were kept on a 12 hr light/dark cycle (0700-1900). Temperature was maintained at 22° C., and food and water were provided ad libitum.
One day before the experiment, CII solution (2 mg/mL) was prepared with 0.05 M acetic acid and stored at 4° C. Just before the immunization, equal volumes of adjuvant […] and CII were mixed by a homogenizer in a pre-cooled glass bottle in an ice water bath. Extra adjuvant and prolonged homogenization may be required if an emulsion is not formed. 0.1 mL of the emulsion was injected intradermally at the base of the tail of each mouse on day 1, a second booster intradermal injection (CII solution at 2 mg/mL in […] 0.1 mLemulsion) was performed on day 21. This immunization method was modified from published methods (Brand et al, 2007, Collagen-induced arthritis. Nature Protocols; vol 2 (5): 1269-1275; Lin et al., 2007, Anti-rheumatic activities of histone deacetylase (HDAC) inhibitors in vivo in collagen-induced arthritis in rodents. Br J Pharmacol. April; 150 (7):829-31).
The therapeutic effects of the antibodies were tested in the mouse CIA model. Mice were randomly divided into equal groups and each group contained 10 mice. All mice were immunized on day 1 and boosted on day 21. Therapeutic dosing lasted from day 31 to day 46. The negative control group was treated with vehicle (PBS) and the positive control group with Enbrel (10 mg/kg, 3× week, i.p.). An antibody of interest was tested at 10 mg/kg, i.p. 3 times per week.
Anti-IL17C antibodies were administered i.p. three times a week at 10 mg/kg. […]
Arthritis was scored according to the method of Khachigian 2006 (Collagen antibody-induced arthritis. (2006) Nature Protocols 1, 2512-6), Lin et al 2007 (supra); Nishida et al. 2004 (Histone deacetylase inhibitor suppression of autoantibody-mediated arthritis in mice via regulation of p16INK4a and p21(WAF1/Cip1) expression. Arthritis Rheum. 10: 3365-76); and Brand et al. 2007 (supra). […]

[3] = target: T1, mouse IL17C (Mus musculus, UniProt Q8K4C5); assay: ELISA titration on mouse IL17C (EC50 determination); assay type: binding
T1 construct: purchased R&D Systems 2306-ML/CF
T1 sequence (Q8K4C5 17-194): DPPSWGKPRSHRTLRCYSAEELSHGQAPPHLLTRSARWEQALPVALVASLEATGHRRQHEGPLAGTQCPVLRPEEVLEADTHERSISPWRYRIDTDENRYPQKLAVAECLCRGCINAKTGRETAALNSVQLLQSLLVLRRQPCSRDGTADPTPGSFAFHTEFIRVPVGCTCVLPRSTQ
Experimental: All purified chimeric human-mouse chimeric IgG2a antibodies were titrated on mouse IL17C for EC50 determination in ELISA starting with a concentration of 100 nM. EC50 values on mouse IL17C were determined in 1 to 3 independent experiments.

Molecule: O=C(Nc1c(Cl)cncc1Cl)c1ccc(OC(F)F)c(OCC2CC2)c1 [Roflumilast, reference compound]
Inhibition of epithelial cells in BAL ([1]; 5 mg/kg p.o. q.d.): 50%
Inhibition of lymphocytes in BAL ([1]; 5 mg/kg p.o. q.d.): 54%
Inhibition of macrophages in BAL ([1]; 5 mg/kg p.o. q.d.): 13%
Inhibition of neutrophils in BAL ([1]; 5 mg/kg p.o. q.d.): 56%
Inhibition of total cells in BAL ([1]; 5 mg/kg p.o. q.d., 1 h prior to each TS-exposure): 32%
inhibition of total cell numbers recovered in the BAL (in words) ([1]; 5 mg/kg p.o., 1 h prior to each TS-exposure): significantly inhibited

Molecule: etanercept [Enbrel, reference compound]
inhibition of inflammation / disease progression (clinical score) [2]: did inhibit

binding activity with purified IgG2a [3]: could not be confirmed
B1: MOR12757: anti-mouse IL17C HuCAL antibody; CDRs SEQ ID NO: 121-126, VL 127, VH 128 (antibody, V domains shown)
VH: EVQLLESGGGLVQPGGSLRLSCAASGFTFSSYAMSWVRQAPGKGLEWVSFISSGGSETFYADSVKGRFTISRDNSKNTLYLQMNSLRAEDTAVYYCARVSYIYYYSWVLFDVWGQGTLVTVSS
VL: DIQMTQSPSSLSASVGDRVTITCRASQGIGTALNWYQQKPGKAPKLLIYDVSSLQSGVPSRFSGSGSGTDFTLTISSLQPEDFATYYCQQGLFLPFTFGQGTKVEIKRT
modifications: VH; VL

binding activity with purified IgG2a [3]: could not be confirmed
B2: MOR12756: anti-mouse IL17C HuCAL antibody; CDRs SEQ ID NO: 111-116, VL 117, VH 118 (antibody, V domains shown)
VH: QVQLQQSGPGLVKPSQTLSLTCAISGDSVSDNSVAWNWIRQSPSRGLEWLGRIYYRSKWYNDYAVSVKSRITINPDTSKNQFSLQLNSVTPEDTAVYYCAREVLLFPARSYGTGMDVWGQGTLVTVSS
VL: DIELTQPPSVSVSPGQTASITCSGDNLPSKYVHWYQQKPGQAPVLVIYDDNERPSGIPERFSGSNSGNTATLTISGTQAEDEADYYCGVADMPRQMKVFGGGTKLTVLGQ
modifications: VH; VL

binding activity with purified IgG2a [3]: could not be confirmed
B3: MOR12758: anti-mouse IL17C HuCAL antibody; CDRs SEQ ID NO: 131-136, VL 137, VH 138 (antibody, V domains shown)
VH: EVQLVQSGAEVKKPGESLKISCKGSGYSFTDYWISWVRQMPGKGLEWMGAIDPTDSYTRYSPSFQGQVTISADKSISTAYLQWSSLKASDTAMYYCARWYTSHPYYEGRYPMDVWGQGTLVTVSS
VL: DIALTQPASVSGSPGQSITISCTGTSSDVGHYNYVSWYQQHPGKAPKLMIYGVTKRPSGVSNRFSGSKSGNTASLTISGLQAEDEADYYCASADEWPTLHVFGGGTKLTVLGQ
modifications: VH; VL

binding activity with purified IgG2a [3]: could not be confirmed
B4: MOR12755: anti-mouse IL17C HuCAL antibody; CDRs SEQ ID NO: 101-106, VL 107, VH 108 (antibody, V domains shown)
VH: QVQLQQSGPGLVKPSQTLSLTCAISGDSVSSNSAAWNWIRQSPSRGLEWLGKTYYRSTWSNDYAESVKSRITINPDTSKNQFSLQLNSVTPEDTAVYYCAREMDSLTRSASSIAFDYWGQGTLVTVSS
VL: DIELTQPPSVSVSPGQTASITCSGDNLREHYVHWYQQKPGQAPVLVIYDDTERPSGIPERFSGSNSGNTATLTISGTQAEDEADYYCATRDWSNVVFGGGTKLTVLGQ
modifications: VH; VL

Source: patent US10815297B2, “Antagonists of IL17C for the treatment of inflammatory disorders” (MorphoSys AG, priority 2011, dated 2020)
